Measured values published in PubChem BioAssay AID328 (DTP/NCI, 2004).
Where “and” joins values, the source holds several entries; their conditions need not be identical. Equal values may be shown once. Toxic doses and inconclusive results are not listed.

Test system: BDF1 mice, P388 leukemia ip, median survival T/C
Assay: NCI In Vivo Anticancer Drug Screen. Data for tumor model P388 Leukemia (intraperitoneal) in B6D2F1 (BDF1) mice
Details: endpoint: median survival time, higher = longer survival
Outline: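 T/C = treated-group survival ÷ vehicle-control survival; tumour transplanted into mice before dosing.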

[1] = dose: 100.0 mg/kg/injection, schedule: Q01DX001 (ip), vehicle: Klucel (hydroxypropylcellulose) (HPC)
[2] = dose: 200.0 mg/kg/injection, schedule: Q01DX001 (ip), vehicle: Klucel (hydroxypropylcellulose) (HPC)
[3] = dose: 400.0 mg/kg/injection, schedule: Q01DX001 (ip), vehicle: Klucel (hydroxypropylcellulose) (HPC)
[4] = dose: 6.25 mg/kg/injection, schedule: Q01DX009 (ip), vehicle: Klucel (hydroxypropylcellulose) (HPC)
[5] = dose: 100.0 mg/kg/injection, schedule: Q04DX003 (ip), vehicle: Klucel (hydroxypropylcellulose) (HPC)
[6] = dose: 200.0 mg/kg/injection, schedule: Q04DX003 (ip), vehicle: Klucel (hydroxypropylcellulose) (HPC)
[7] = dose: 400.0 mg/kg/injection, schedule: Q04DX003 (ip), vehicle: Klucel (hydroxypropylcellulose) (HPC)
[8] = dose: 200.0 mg/kg/injection, schedule: Q01DX009 (ip), vehicle: Klucel (hydroxypropylcellulose) (HPC)
[9] = dose: 400.0 mg/kg/injection, schedule: Q01DX009 (ip), vehicle: Klucel (hydroxypropylcellulose) (HPC)
[10] = dose: 50.0 mg/kg/injection, schedule: Q01DX009 (ip), vehicle: saline with Tween-80
[11] = dose: 100.0 mg/kg/injection, schedule: Q01DX009 (ip), vehicle: saline with Tween-80
[12] = dose: 25.0 mg/kg/injection, schedule: Q01DX009 (ip), vehicle: saline
[13] = dose: 50.0 mg/kg/injection, schedule: Q01DX009 (ip), vehicle: saline
[14] = dose: 50.0 mg/kg/injection, schedule: Q04DX003 (ip), vehicle: saline
[15] = dose: 100.0 mg/kg/injection, schedule: Q01DX009 (ip), vehicle: saline
[16] = dose: 100.0 mg/kg/injection, schedule: Q04DX003 (ip), vehicle: saline
[17] = dose: 200.0 mg/kg/injection, schedule: Q01DX009 (ip), vehicle: saline
[18] = dose: 200.0 mg/kg/injection, schedule: Q04DX003 (ip), vehicle: saline
[19] = dose: 400.0 mg/kg/injection, schedule: Q01DX009 (ip), vehicle: saline
[20] = dose: 400.0 mg/kg/injection, schedule: Q04DX003 (ip), vehicle: saline

CCC12C=CCN3CCC4(c5cc(C(c6ccc(OC)cc6)c6cc7ccccc7[nH]6)c(OC)cc5N(C)C4C(O)(CO)C1O)C32 (stereo unspecified)
T/C (dose: 2.0 mg/kg/injection, schedule: Q01DX009 (ip), vehicle: saline): 104 % of control
T/C (dose: 4.0 mg/kg/injection, schedule: Q01DX009 (ip), vehicle: saline): 98 % of control
T/C (dose: 8.0 mg/kg/injection, schedule: Q01DX009 (ip), vehicle: saline): 95 % of control
T/C (dose: 16.0 mg/kg/injection, schedule: Q01DX009 (ip), vehicle: saline): 98 % of control
T/C (dose: 32.0 mg/kg/injection, schedule: Q01DX009 (ip), vehicle: saline): 104 % of control

Cc1ccc(NCC(O)CN2CCN(CC(O)CNc3ccc(C)cc3)CC2)cc1 (stereo unspecified)
T/C [1]: 104 % of control
T/C [2]: 100 % of control
T/C [3]: 86 % of control

CCC(O)(c1ccc(OC)cc1)C(c1ccccc1)c1ccccn1 (stereo unspecified)
T/C (dose: 31.25 mg/kg/injection, schedule: Q01DX009 (ip), vehicle: saline with Tween-80): 103 % of control
T/C (dose: 62.5 mg/kg/injection, schedule: Q01DX009 (ip), vehicle: saline with Tween-80): 103 % of control
T/C (dose: 125.0 mg/kg/injection, schedule: Q01DX009 (ip), vehicle: saline with Tween-80): 100 % of control

O=S(/C=C/c1ccccc1)c1ccccc1 (stereo unspecified)
T/C (dose: 50.0 mg/kg/injection, schedule: Q01DX009 (ip), vehicle: other): 104 % of control
T/C (dose: 100.0 mg/kg/injection, schedule: Q01DX009 (ip), vehicle: other): 100 % of control
T/C (dose: 200.0 mg/kg/injection, schedule: Q01DX009 (ip), vehicle: other): 104 % of control

COc1c(C#N)c2c(c(OC)c1OC)-c1ccc(OC)c(=O)cc1[C@@H](NC(C)=O)CC2
T/C [4]: 119 % of control

Cc1cc2c(cc1C)NC(=O)CC(=O)N2
T/C [5]: 100 % of control
T/C [6]: 86 % of control
T/C [7]: 86 % of control

CCCC(=O)Nc1ccn(C2OC(COC(=O)CCC)C(OC(=O)CCC)C2OC(=O)CCC)c(=O)n1 (stereo unspecified)
T/C [4]: 91 % of control
T/C (dose: 12.5 mg/kg/injection, schedule: Q01DX009 (ip), vehicle: Klucel (hydroxypropylcellulose) (HPC)): 100 % of control
T/C (dose: 25.0 mg/kg/injection, schedule: Q01DX009 (ip), vehicle: Klucel (hydroxypropylcellulose) (HPC)): 87 % of control
T/C (dose: 50.0 mg/kg/injection, schedule: Q01DX009 (ip), vehicle: Klucel (hydroxypropylcellulose) (HPC)): 104 % of control
T/C [5]: 100 % of control
T/C [8]: 165 % of control and 177 % of control
T/C [6]: 109 % of control
T/C [9]: 181 % of control and 190 % of control
T/C [7]: 122 % of control

CC(C)(O)c1cccc(F)c1
T/C [10]: 100 % of control
T/C [11]: 104 % of control
T/C (dose: 200.0 mg/kg/injection, schedule: Q01DX009 (ip), vehicle: saline with Tween-80): 109 % of control

NC(Cc1cc(Br)c(O)c(Br)c1)C(=O)O (stereo unspecified)
T/C [12]: 108 % of control
T/C [13]: 92 % of control
T/C [14]: 120 % of control
T/C [15]: 96 % of control
T/C [16]: 105 % of control
T/C [17]: 120 % of control
T/C [18]: 115 % of control
T/C [19]: 113 % of control

CC(/C=N\N=C(N)N)=N/N=C(N)N
T/C (dose: 5.0 mg/kg/injection, schedule: Q01DX010 (ip), vehicle: saline): 90 % of control
T/C (dose: 10.0 mg/kg/injection, schedule: Q01DX010 (ip), vehicle: saline): 90 % of control and 100 % of control
T/C (dose: 20.0 mg/kg/injection, schedule: Q01DX010 (ip), vehicle: saline): 100 % of control
T/C (dose: 44.0 mg/kg/injection, schedule: Q01DX009 (ip), vehicle: saline): 150 % of control
T/C [20]: 95 % of control

O=C(O)/C=C\c1c[nH]c2nccnc12
T/C (dose: 12.5 mg/kg/injection, schedule: Q01DX009 (ip), vehicle: saline): 103 % of control
T/C [12]: 95 % of control
T/C (dose: 25.0 mg/kg/injection, schedule: Q04DX003 (ip), vehicle: saline): 97 % of control
T/C [13]: 95 % of control
T/C [14]: 100 % of control

CCCCCCCCCCCC#N
T/C [15]: 95 % of control
T/C [17]: 95 % of control
T/C [19]: 100 % of control

C[C@@H]1CC2=CC(=O)C=C[C@]2(C)[C@H]2CC[C@@]3(C)[C@@H](CC[C@]3(C)O)[C@H]12
T/C (dose: 50.0 mg/kg/injection, schedule: Q01DX009 (sc), vehicle: steriod suspending solution): 95 % of control
T/C (dose: 100.0 mg/kg/injection, schedule: Q01DX009 (ip), vehicle: Klucel (hydroxypropylcellulose) (HPC)): 88 % of control
T/C (dose: 100.0 mg/kg/injection, schedule: Q01DX009 (sc), vehicle: steriod suspending solution): 90 % of control
T/C [5]: 91 % of control
T/C [8]: 100 % of control
T/C (dose: 200.0 mg/kg/injection, schedule: Q01DX009 (sc), vehicle: steriod suspending solution): 86 % of control
T/C [6]: 95 % of control
T/C [9]: 88 % of control
T/C [7]: 91 % of control

C(=C/c1nc2ccccc2o1)/c1ccc2c(c1)OCO2
T/C (dose: 50.0 mg/kg/injection, schedule: Q01DX011 (ip), vehicle: Klucel (hydroxypropylcellulose) (HPC)): 102 % of control
T/C [1]: 100 % of control
T/C (dose: 100.0 mg/kg/injection, schedule: Q01DX011 (ip), vehicle: Klucel (hydroxypropylcellulose) (HPC)): 99 % of control
T/C [2]: 86 % of control
T/C (dose: 200.0 mg/kg/injection, schedule: Q01DX011 (ip), vehicle: Klucel (hydroxypropylcellulose) (HPC)): 100 % of control
T/C [3]: 94 % of control

CN(C)Cc1ccc(-c2cc3onc(-c4ccccc4)c3c(=O)n2C)cc1
T/C (dose: 50.0 mg/kg/injection, schedule: Q01DX005 (ip), vehicle: saline with Tween-80): 108 % of control
T/C (dose: 100.0 mg/kg/injection, schedule: Q01DX005 (ip), vehicle: saline with Tween-80): 94 % of control
T/C (dose: 200.0 mg/kg/injection, schedule: Q01DX005 (ip), vehicle: saline with Tween-80): 97 % of control

CC(=O)OCC(=O)C1CCC=CC1OC(C)=O (stereo unspecified)
T/C [12]: 92 % of control
T/C [13]: 104 % of control
T/C [14]: 95 % of control
T/C [15]: 98 % of control
T/C [16]: 101 % of control
T/C [17]: 104 % of control
T/C [18]: 98 % of control and 120 % of control
T/C [19]: 88 % of control
T/C [20]: 93 % of control and 117 % of control

Nc1ccc(OCc2ccccc2)cc1
T/C (dose: 6.25 mg/kg/injection, schedule: Q01DX009 (ip), vehicle: saline with Tween-80): 90 % of control
T/C (dose: 12.5 mg/kg/injection, schedule: Q01DX009 (ip), vehicle: saline with Tween-80): 100 % of control
T/C (dose: 25.0 mg/kg/injection, schedule: Q01DX009 (ip), vehicle: saline with Tween-80): 100 % of control
T/C (dose: 25.0 mg/kg/injection, schedule: Q04DX003 (ip), vehicle: saline with Tween-80): 95 % of control
T/C (dose: 50.0 mg/kg/injection, schedule: Q04DX003 (ip), vehicle: saline with Tween-80): 100 % of control
T/C (dose: 100.0 mg/kg/injection, schedule: Q04DX003 (ip), vehicle: saline with Tween-80): 100 % of control

CC(=O)OCC(OC(C)=O)C(OC(C)=O)C(OC(C)=O)C1COC(C)(C)O1 (stereo unspecified)
T/C (dose: 75.0 mg/kg/injection, schedule: Q01DX009 (ip), vehicle: saline with Tween-80): 94 % of control
T/C (dose: 150.0 mg/kg/injection, schedule: Q01DX009 (ip), vehicle: saline with Tween-80): 86 % of control
T/C (dose: 300.0 mg/kg/injection, schedule: Q01DX009 (ip), vehicle: saline with Tween-80): 91 % of control

Nc1[nH]c(=O)ncc1[N+](=O)[O-]
T/C [10]: 102 % of control
T/C [11]: 118 % of control

O=S(=O)(O/C1=C/CCCCCC1)C(F)(F)C(F)(F)C(F)(F)C(F)(F)F
T/C [13]: 107 % of control
T/C [15]: 109 % of control
T/C [17]: 109 % of control

[O-][n+]1c(/C=C/c2cccc3ccccc23)cccc1/C=C/c1cccc2ccccc12
T/C (dose: 50.0 mg/kg/injection, schedule: Q01DX005 (ip), vehicle: saline + Tween-80 + alcohol): 94 % of control
T/C (dose: 100.0 mg/kg/injection, schedule: Q01DX005 (ip), vehicle: saline + Tween-80 + alcohol): 96 % of control
T/C (dose: 200.0 mg/kg/injection, schedule: Q01DX005 (ip), vehicle: saline + Tween-80 + alcohol): 96 % of control

CS(=O)(=O)c1ncc2cnccn12
T/C (dose: 100.0 mg/kg/injection, schedule: Q04DX003 (ip), vehicle: water): 110 % of control
